“Also recorded” adds a separate entry of the source.
Assays:
AChE from electric eel = biological target: T1, AChE from electric eel (Electrophorus electricus, UniProt O42275); assay: EeAChE inhibition assay (Ellman's method); type: biochemical; details: read-out: AChE % inhibition at 20 µM; AChE from electric eel; 20 µM; na = no inhibitory activity at 20 µM
T1 construct: assays were performed on AChE from electric eel (C3389-500UN; Sigma); purchased Sigma C3389-500UN
Protocol: (§2) According to the Ellman’s method, assays were performed on AChE from electric eel (C3389-500UN; Sigma) and BuChE from equine serum (C4290-1KU; Sigma). The experiment was performed in 48-well plates in a final volume of 500 µL. Each well contained 0.036 U/mL of eeAChE or eqBuChE, and 0.1 M pH 8 PBS. They were pre-incubated for 20 min at different compound concentrations at 37 °C. […] The DTNB produces the yellow anion 5-thio-2-nitrobenzoic acid along with the enzymatic degradation of ACh or BuCh. Changes in absorbance were measured at 410 nm after 20 min in a PerkinElmer VICTOR Nivo reader. The IC50 values were calculated graphically from inhibition curves (log inhibitor concentration vs percent of inhibition). A control experiment was performed under the same conditions without inhibitor and the blank contained buffer, DMSO, DTNB, and substrate.

BuChE from equine serum = biological target: T2, BuChE from equine serum (Equus caballus, UniProt P81908); assay: eqBuChE inhibition assay (Ellman's method); type: biochemical; details: BuChE from horse serum; mean ± SEM
T2 construct: BuChE from equine serum (C4290-1KU; Sigma); purchased Sigma C4290-1KU; host or cells: equine serum
T2 sequence (P81908 whole entry): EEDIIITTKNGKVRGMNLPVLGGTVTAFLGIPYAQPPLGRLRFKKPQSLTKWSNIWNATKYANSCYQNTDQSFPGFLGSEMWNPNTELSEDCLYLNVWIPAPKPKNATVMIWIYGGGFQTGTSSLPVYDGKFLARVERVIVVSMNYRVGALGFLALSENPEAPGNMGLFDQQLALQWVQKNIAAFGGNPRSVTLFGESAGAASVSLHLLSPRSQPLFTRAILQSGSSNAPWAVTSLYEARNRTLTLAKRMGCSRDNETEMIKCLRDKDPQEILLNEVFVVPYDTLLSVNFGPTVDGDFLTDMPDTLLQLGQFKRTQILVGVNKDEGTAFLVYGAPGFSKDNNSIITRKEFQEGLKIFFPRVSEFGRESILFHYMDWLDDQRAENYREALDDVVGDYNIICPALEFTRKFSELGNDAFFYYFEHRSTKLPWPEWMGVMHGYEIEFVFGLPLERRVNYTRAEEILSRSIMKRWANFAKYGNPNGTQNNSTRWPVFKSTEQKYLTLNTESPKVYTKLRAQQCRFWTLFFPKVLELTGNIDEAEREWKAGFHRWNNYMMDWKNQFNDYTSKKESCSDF
Protocol: as §2

[1] = biological target: T3, recombinant human AChE (hAChE) (Homo sapiens, UniProt P22303); assay: hAChE inhibition assay (Ellman's assay); type: biochemical
T3 construct: purchased Sigma C1682
T3 sequence (P22303 32-614): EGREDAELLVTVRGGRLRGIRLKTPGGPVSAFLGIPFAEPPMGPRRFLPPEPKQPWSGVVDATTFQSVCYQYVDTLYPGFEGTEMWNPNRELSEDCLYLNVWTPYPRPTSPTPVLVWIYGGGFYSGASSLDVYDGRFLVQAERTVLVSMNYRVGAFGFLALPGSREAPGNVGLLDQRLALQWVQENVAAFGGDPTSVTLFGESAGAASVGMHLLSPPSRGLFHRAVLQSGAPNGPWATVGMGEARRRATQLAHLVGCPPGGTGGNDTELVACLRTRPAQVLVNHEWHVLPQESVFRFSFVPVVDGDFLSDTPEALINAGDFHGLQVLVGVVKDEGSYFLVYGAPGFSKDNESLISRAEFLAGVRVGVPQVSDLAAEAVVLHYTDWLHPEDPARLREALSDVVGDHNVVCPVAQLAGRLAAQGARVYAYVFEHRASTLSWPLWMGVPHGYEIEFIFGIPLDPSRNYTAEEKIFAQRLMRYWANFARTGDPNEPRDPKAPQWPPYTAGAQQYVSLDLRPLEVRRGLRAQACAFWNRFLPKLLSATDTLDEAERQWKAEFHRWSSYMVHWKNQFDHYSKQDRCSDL
Protocol: The solution was diluted to 5 concentrations of 200, 100, 10, 1 and 0.1 µM in ethanol. Measurements were performed using 96-well plates. Buffer (40 µL), sample at a series of concentrations (10 µL), AChE (10 µL), and dibutyl succinate (20 µL) were successively added. The mixture was then incubated for 5 min at 37 °C. Then, 20 µL of ACh or BuCh were added and the reaction started. […] For the blank value, 10 µL of water was used instead of the inhibitor solution. The activity of the inhibitor was expressed as a logarithmic plot of the percentage of enzyme activity (with 100% as the reference) versus the concentration of the compound. IC50 values were determined graphically from inhibition curves (log inhibitor concentration versus percent inhibition).

[2] = biological target: T4, BuChE from human serum (hBuChE) (Homo sapiens, UniProt P06276); assay: hBuChE inhibition assay (Ellman's assay); type: biochemical; details: mean ± SEM
T4 construct: BuChE from human serum (hBuChE); purchased Sigma B4186; host or cells: human serum
T4 sequence (P06276 29-602): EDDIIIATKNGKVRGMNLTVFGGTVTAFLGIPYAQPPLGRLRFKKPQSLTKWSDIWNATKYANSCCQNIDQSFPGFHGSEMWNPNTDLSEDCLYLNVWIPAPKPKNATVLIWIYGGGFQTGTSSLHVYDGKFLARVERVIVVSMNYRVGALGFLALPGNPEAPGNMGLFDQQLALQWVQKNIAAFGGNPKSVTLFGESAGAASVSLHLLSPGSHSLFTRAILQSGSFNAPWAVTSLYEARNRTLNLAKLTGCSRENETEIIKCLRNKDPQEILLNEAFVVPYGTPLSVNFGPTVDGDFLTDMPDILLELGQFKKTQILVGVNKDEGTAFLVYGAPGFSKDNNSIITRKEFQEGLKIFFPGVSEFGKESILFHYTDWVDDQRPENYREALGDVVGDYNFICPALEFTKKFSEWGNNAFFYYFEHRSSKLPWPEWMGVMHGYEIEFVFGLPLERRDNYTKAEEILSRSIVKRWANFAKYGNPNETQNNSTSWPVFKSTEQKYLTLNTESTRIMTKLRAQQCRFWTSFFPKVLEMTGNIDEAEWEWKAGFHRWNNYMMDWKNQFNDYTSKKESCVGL

eqBuChE = biological target: T5, eqBuChE (Equus caballus, UniProt P81908); assay: Kinetic study of eqBuChE inhibition; type: biochemical, horse
T5 construct: BuChE from equine serum (C4290-1KU; Sigma); purchased Sigma C4290-1KU; host or cells: equine serum
T5 sequence (P81908 whole entry): as the sequence (P81908 whole entry) above
Protocol: Kinetic studies were performed with the same test conditions, using six concentrations of substrate (0.1‒1 mM) and four concentrations of inhibitor (0‒0.08 mM). The apparent inhibition constants and kinetic parameters were calculated in the “Enzyme Kinetics” module of Prism8. The effect of compound A10 concentration on the catalytic activity of BuChE at 37 °C was investigated. Assay conditions were same as described in the assay protocol except that the final concentration of enzyme was varied (0‒0.72 U/mL). Concentrations of compound A10 were 0, 0.02, 0.04, 0.08 µM respectively, for the determination of reversible as well as irreversible binding of inhibitors at enzyme.

[3] = test system: human normal hepatocyte L02; assay: Cytotoxicity MTT assay on L02 cells; type: cell-based; details: 24 h
Protocol: (§1) The cytotoxic effect was detected by MTT colorimetric assay. Human hepatoblastoma cells HepG2 and human normal hepatocyte L02 were maintained at 37 °C in a 5% humidified incubator containing 10% foetal bovine serum, 100 U/mL penicillin and […] streptomycin. HepG2 cells and L02 cells were seeded in 96-well plates at 1 × 10^4 cells per well. After cell culture for 24 h, different compounds were diluted in DMEM for 24 h. […] of 5 mg/mL MTT reagent was added for incubation for 4 h. After 4 h, the cell culture medium was removed and […] of DMSO was added to dissolve formazan. The optical density was measured at 492 nm (OD492). Cell viability was calculated from three independent experiments. The density of formazan formed in blank group was set as 100% of viability. Cell viability (%) ¼ compound (OD492/blank (OD492) ×100%

[4] = test system: human hepatoblastoma cells HepG2; assay: Cytotoxicity MTT assay on HepG2 cells; type: cell-based; details: 24 h
Protocol: as §1

PC12 cells = assay: Neuroprotection assay against H2O2 damage; type: cell-based; details: PC12, 100 µM H2O2 (model 47.3%), not given
ICR mice = assay: In vivo acute toxicity evaluation; set-up: species or system mouse
Protocol: […]. Compound A10 was suspended in a mixture of DMSO, PEG 400 and physiological saline (10/50/40, v/v/v). After fasting for 8‒12 h, the mice were intragastrically administered with the preparation or test compound A10 1.0 g/kg on the first day. The behaviour, appearance and body weight changes of the mice were observed and recorded for 2 weeks. The body weights of the mice in the control group and experimental group were compared and summarised with GraphPadPrism8.0 software.

[5] = test system: Aβ1-42-induced cognitive dysfunction; assay: Morris water maze in Aβ1-42-induced cognitive impairment model; type: in vivo, mouse; details: mice, 10 mg/kg po Day 3 to Day 14
Protocol: All experiments were performed according to the National Institutes of Health Guide for the Care and Use of Laboratory Animals. The Measures for the Care and Treatment of Laboratory Animals were approved by the Animal Care and Use Committee of Anhui Medical University. Male ICR mice were used in the animal centre of Anhui Medical University (Hefei). Male mice (18‒24 g) aged 6‒8 weeks, 10 mice per cage, room temperature 22 ± 2 °C, light/dark (12:12 h) cycle. These animals had access to food and water prior to testing. The ambient temperature and relative humidity (50%) of the room remained consistent throughout all tests. Behavioural experiments: MWM was used for cognitive function, and mice were randomly selected for behavioural experiments. Each experimental group consisted of 8‒10 mice/dose. The experimental time was from 08:00 to 14:00, and the mice were sacrificed by cervical dislocation immediately after the end of the experiment. […]. Aβ1-42 aggregation was induced by dissolving the Aβ1-42 peptide in DMSO as a stock solution of 5 mM and incubating it in saline at a final concentration of 2 mg/mL for 24 h at 37 °C.
The behavioural study was a water maze experimental behavioural study on days 10 − 15, including a 5-day learning and memory training, and a test assessment on day 6. MWM consists of a water-filled pool (grey, circular, 1.20 m in diameter, 0.60 m in height) and a platform with adjustable height and movable position. The pool was divided into four equal quadrants (compass position: NE, NW, SE, SW) using a computerised video tracking system (SMART, version 3.0; Panlab, Spain). The pool was filled with water, generally about 48 cm below the edge, to prevent animals from jumping out, and the water temperature was maintained at 22 ± 1 °C. […] The time to reach the hidden platform (i.e. escape latency), the distance to reach the hidden platform, the distance in the target (NW) area, and the average speed were recorded. […]

Aβ1-42 = type: in vivo, mouse; details: mice, Aβ1-42 icv; 10 mg/kg po; vs model group
Protocol: In the experiment of Aβ1-42 oligomeric injury, all mice were sacrificed after the end of behavioural study, and the brains were taken to determine the total content of Aβ1-42 with a mouse ELISA kit (Wuhan Huamei Biotechnology Co., Ltd.). Each brain tissue specimen was completely homogenised with a grinder with 10 times PBS (pH = 7.4 ± 0.1) and then centrifuged at 5000×g for 5 min. The supernatant was separated for use. Brain tissue Aβ1-42 content was calculated according to the linear regression equation.

[6] = PAMPA-BBB class
Protocol: (§3) The 96-well UV plate (COSTAR) was manufactured by Corning Corporation, USA, and the commercially available drugs and test compounds were initially dissolved in DMSO at a concentration of 20 mg/mL. The solution was then diluted 200-fold with PBS (pH 7.4 ± 0.1)/EtOH (70/30, v/v) solution to a final concentration of 100 µg/mL.
(§4) The test compound was dissolved in DMSO at 5 mg/mL and diluted 200-fold with universal buffer (final concentration 25 µg/mL) to prepare the secondary stock solution; 200 µL of the secondary stock solution was added to the donor well; the acceptor plate was coated with 4 µL of 20 mg/mL dodecyl porcine polar brain, and then, 200 µL of pH 7.4 universal buffer was added to the acceptor well; the acceptor plate was carefully placed on the donor plate to form a “sandwich” and maintained for 18 h; the drug concentrations in the acceptor, donor and reference wells were determined using a UV microplate reader; the experiment was repeated three times, and the concentrations of the test compound in the donor and acceptor wells were measured using a UV plate spectral reader (PerkinElmer VICT or Nivo, Finland). In at least three independent experiments, each sample was analysed at three wavelengths in a four well.

in vitro = details: PAMPA, PAMPA-BBB
Protocol: as §3, §4

male ICR mice = assay: In vivo hepatotoxicity evaluation
Protocol: The combination was administered intragastrically at a dose of 30 mg/kg body weight and the same amount of vehicle (po). Heparinised serum was collected from the retrobulbar plexus at 8, 22, and 36 h after administration for hepatotoxicity evaluation. The activities of alanine aminotransferase (ALT) and aspartate aminotransferase (AST), indicators of liver injury, were measured with corresponding kits (EF551 and EF550 for ALT, EH027 and EH548 for AST). […] After the last collection of post-globular blood, mice were sacrificed and livers were taken for immunohistochemical morphological observation. We isolated two 3-mm sections of each liver from the hilum to the edge of the left lateral lobe using an ultra-thin semi-automatic microtome (LeicaRM2245, Germany), immediately placed them in 10% buffered formaldehyde, fixed them for 2 days, and embedded them in paraffin blocks using a paraffin-embedding station (LeicaEG1150H, Germany). Subsequently, five µM sections were prepared from these paraffin sections, deparaffinized, stained with haematoxylin and eosin or using the periodic acid-Schiff glycogen staining method.

[7] = 30 mg/kg intragastric, 8, 22 and 36 h

T1 sequence (O42275 24-633): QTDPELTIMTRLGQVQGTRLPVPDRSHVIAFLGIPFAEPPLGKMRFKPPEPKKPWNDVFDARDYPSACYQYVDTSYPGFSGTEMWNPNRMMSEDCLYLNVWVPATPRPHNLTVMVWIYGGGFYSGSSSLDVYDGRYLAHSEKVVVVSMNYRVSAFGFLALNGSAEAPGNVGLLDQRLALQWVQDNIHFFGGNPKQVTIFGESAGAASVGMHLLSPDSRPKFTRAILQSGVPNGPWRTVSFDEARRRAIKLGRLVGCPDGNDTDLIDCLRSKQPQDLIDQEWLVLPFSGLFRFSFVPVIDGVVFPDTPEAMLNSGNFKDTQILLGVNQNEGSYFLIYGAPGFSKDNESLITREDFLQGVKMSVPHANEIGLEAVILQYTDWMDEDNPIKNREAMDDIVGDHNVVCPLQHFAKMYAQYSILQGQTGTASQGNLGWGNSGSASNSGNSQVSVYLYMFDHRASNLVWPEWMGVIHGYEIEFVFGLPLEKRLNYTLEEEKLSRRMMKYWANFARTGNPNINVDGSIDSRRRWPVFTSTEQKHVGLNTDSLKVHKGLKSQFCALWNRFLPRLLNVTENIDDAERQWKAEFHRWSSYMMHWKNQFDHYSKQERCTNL

## COc1ccccc1C=CC=C(Br)S(=O)(=O)F [Compound A10]
AChE from electric eel
  inhibition at 20 µM: 40.8 ± 3.3%
BuChE from equine serum
  IC50: 21 nM
[1]
  inhibition at 20 µM: 49.7 ± 2.7%
[2]
  IC50: 3620 ± 320 nM
eqBuChE; Lineweaver–Burk plot, eqBuChE
  type of BuChE inhibition: mixed competitive; also recorded: mixed inhibition
eqBuChE; enzyme activity vs enzyme concentration, 0–0.08 µM inhibitor
  reversibility of BuChE inhibition: reversible
eqBuChE; eqBuChE, Lineweaver–Burk secondary plot, read-out: dissociation constant Ki
  Ki: 29 nM
[3]; 50 µM
  cell survival rate: 87.1%
[3]; 10 and 25 µM
  cell survival rate: did not decrease
[4]; 50 µM
  cell survival rate: 85.6%
[4]; 10 and 25 µM
  cell survival rate: did not decrease
PC12 cells; first (lower) of the A10 concentrations
  cell survival rate: 63.3%
PC12 cells; second (higher) of the A10 concentrations
  cell survival rate: 71.8%
ICR mice; 1.0 g/kg intragastric
  general condition, appearance and activity: no significant change in appearance and activity
ICR mice; ICR mice, 1.0 g/kg intragastric, 14 days
  difference of body weight changes vs vehicle group: not significant
ICR mice; ICR mice, single intragastric dose 1.0 g/kg, 14 days
  tolerability in vivo: well tolerated
[5]
  body weight gain during treatment: did not affect
[5]; Aβ1-42 10 µg icv, 10 mg/kg
  effect on Aβ1-42-induced cognitive dysfunction (MWM): significantly improved; also recorded: improved the cognitive impairment
Aβ1-42
  decrease of brain Aβ1-42 peptides: 20.6%
[6]
  BBB penetration: CNS+ (“CNS +” (high BBB permeation): Pe (× 10^‒6 cm/s) >4.0)
In vitro; pH 7.4, Pe
  Papp: 13.7 ×10⁻⁶ cm/s
In vitro; pH 7.4, Pe×10^-6cm/s Exp. value, three independent experiments
  Papp: 13.4 ×10⁻⁶ cm/s
Male ICR mice; [7]
  serum ALT vs vehicle group: no significant difference
  serum AST vs vehicle group: no significant difference
Male ICR mice; 30 mg/kg, 36 h after administration
  liver histomorphology: didn’t show central necrosis or significant steatosis

— article PMC8386747, “Structure–activity relationship, in vitro and in vivo evaluation of novel dienyl sulphonyl fluorides as selective BuChE inhibitors for the treatment of Alzheimer's disease” (Journal of Enzyme Inhibition and Medicinal Chemistry, 2021)
